Literature values, collected in patent US20120128764A1, “CONTROLLED-RELEASE COMPOSITIONS COMPRISING A PROTON PUMP INHIBITOR” (Aptalis Pharmatech, Inc., priority 2009, published 2012).

Tests used:
[1] = not given; remark: listed apart in the source

SMILES	solubility in phosphate buffer (phosphate buffer at pH 7.4)	solubility in water (water)	mean Tmax ([1]; after oral administration)	half-life (t1/2) ([1]; elimination) [h]	accumulation upon multiple dosing ([1]; multiple dosing)	dose proportionality of Cmax and AUC ([1]; over 10 mg to 80 mg doses)
COc1ccnc(C[S+]([O-])c2nc3ccc(OC(F)F)cc3[nH]2)c1OC (stereo not drawn) [Pantoprazole sodium sesquihydrate]	very slightly soluble	freely soluble				
COc1ccnc(C[S+]([O-])c2nc3ccc(OC(F)F)cc3[nH]2)c1OC (stereo not drawn) [Pantoprazole, 5-(difluoromethoxy)-2-[(3,4-dimethoxypyridin-2-yl)methylsulfinyl]-3H-benzoimidazole]			approximately 90 minutes	1.8	does not accumulate	dose proportional
